In PubChem BioAssay (NCI):
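Values below derive from 48-hour exposures of cells grown in 96-well plates, with endpoints linearly interpolated between the two concentrations bracketing the appropriate inhibition level. TGI is the concentration that stops growth completely.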 Where a SMILES comes first, the peptide text is derived from it. The star is where a group is joined. Cbz = O=C(OCc1ccccc1)*; NHNH2 = NN*

Legend:
Assay in all cases: NCI-60 cell line screen, 48 h
[1] = tested on: COLO 205 colon
[2] = tested on: HL-60(TB) leukemia
[3] = tested on: HS 578T breast
[4] = tested on: KM12 colon
[5] = tested on: LOX IMVI melanoma
[6] = tested on: MCF7 breast
[7] = tested on: NCI-H226 lung
[8] = tested on: OVCAR-5 ovarian
[9] = tested on: UO-31 renal
[10] = tested on: RPMI-8226 leukemia

SMILES | TGI [1] [µM] | TGI [2] [µM] | TGI [3] [µM] | TGI [4] [µM] | TGI [5] [µM] | TGI [6] [µM] | TGI [7] [µM] | TGI [8] [µM] | TGI [9] [µM] | TGI [10] [µM]
O=c1c(-c2ccc(Cl)cc2)nnc2n(Cc3ccccc3)c3ccccc3n12 | > 100 | > 100 | > 100 | > 100 | > 100 | > 100 | > 100 | > 100 | > 100 | 
O=C(N/N=C/c1ccco1)c1cc(I)cc(I)c1O | 45.6 | 27.7 | > 50 |  | > 50 | > 50 | 39.7 | 40.9 | > 50 | 43
CC1(C)CNC(=O)C2(C=NC(C)(C)CNC(=O)C3(C=N1)CCCO3)CCCO2 (stereo not given) | > 10 | > 10 | > 10 | > 10 |  | > 10 |  |  |  | > 10
COC(=O)C1=Nc2c(C)nn(-c3ccccc3)c2N=C(c2ccc([N+](=O)[O-])cc2)C1 | > 10 | > 10 | > 10 | > 10 | > 10 | > 10 |  | > 10 |  | > 10
COc1c(Br)cc(CC(N)=O)c(O)c1Br | > 100 | > 100 |  | > 100 | > 100 |  | > 100 | > 100 | > 100 | 
Cc1nc(C)c(Cc2ccccc2)o1 | > 100 | > 100 | > 100 | > 100 | > 100 | > 100 | > 100 | > 100 | > 100 | 
CC1(C)OCC2OC3([C@H]4OC(C)(C)O[C@@H]4CO)OC(C)(C)OC3C2O1 (stereo not given in full) | > 100 |  |  | > 100 | > 100 | > 100 | > 100 | > 100 | > 100 | > 100
Nc1ccc2[nH]c(-c3cccc(Cl)c3)cc(=O)c2c1 | > 100 |  | > 100 | > 100 |  | > 100 |  | > 100 |  | 
Nc1c(C(=O)c2ccc(Cl)cc2)[nH]c(NCc2ccccc2)c1C(=S)Nc1ccccc1 | 26.2 | 14 |  | 3.24 | 3.19 | 3.08 | 27.2 | 9.16 | 3.02 | 4.34
O=C(Cc1ccccc1)NN1C(=O)/C(=C\c2ccc([N+](=O)[O-])cc2)SC1=Nc1ccccc1 | > 100 |  | > 100 | > 100 |  | > 100 | > 100 | > 100 | > 100 | > 100
COC(=O)CC(NC(=O)OCc1ccccc1)C(=O)NC(CC(=O)OC)C(=O)NC(CC(=O)OC)C(=O)NC(CC(=O)OC)C(=O)NC(CC(=O)OC)C(=O)NC(CC(=O)OC)C(=O)NN (stereo not given) (Cbz-D(OMe)D(OMe)D(OMe)D(OMe)D(OMe)D(OMe)-NHNH2; configuration not given here) | > 100 | > 100 | > 100 | > 100 | > 100 | > 100 |  | > 100 | > 100 | > 100
COc1cc(/C=C\C(=O)O)ccc1OCc1ccccc1 | > 100 | > 100 | > 100 | > 100 | > 100 | > 100 |  | > 100 | > 100 | > 100
CN(C)CCn1c(=O)c2ccc(NCCCN(C)CCCNc3ccc4c(=O)n(CCN(C)C)c(=O)n5c6ccc([N+](=O)[O-])cc6c(=O)c3c45)c3c(=O)c4cc([N+](=O)[O-])ccc4n(c1=O)c23 | 0.204 | 1.56 |  | 0.27 |  | 0.608 |  | 1.1 | 0.705 | 
C=CCOCCCCC(C(C)=O)C(=O)OC (stereo not given) | > 100 | > 100 |  | > 100 | > 100 |  | > 100 | > 100 | > 100 | > 100
CCOn1c(C2(CC3CCN(C(=O)c4ccccc4)CC3)OCCO2)cc2ccccc21 | 36.3 |  |  | 30.9 | 30.4 | 30 | 20.4 | 37.4 | 26.9 | 28.1
O=C(O)C(CS)N=c1c2ccccc2n(O)c2ccccc12 (stereo not given) | > 100 | > 100 |  | > 100 | > 100 |  | > 100 | > 100 | > 100 | > 100
COC(=O)/C=C/c1cc(OC)c(OC)c(OC)c1 | > 100 | > 100 |  | > 100 | > 100 |  | > 100 |  | > 100 | 
CNC(=O)N(CCC#N)[C@H]1CCCC[C@@H]1N(C(=O)NC)c1ccccc1 | > 100 |  |  | > 100 | > 100 | > 100 | > 100 | > 100 | > 100 | > 100
CCNC(=O)C1CCCN1C(=O)C(CCCN=C(N)N)NC(=O)C(CC(C)C)NC(=O)C(Cc1c[nH]c2ccccc12)NC(=O)C(Cc1ccc(O)cc1)NC(=O)C(CO)NC(=O)C(Cc1c[nH]c2ccccc12)NC(=O)C(Cc1cnc[nH]1)NC(=O)C1CCC(=O)N1 (stereo not given) | > 100 |  | > 100 | > 100 |  | > 100 | > 100 | > 100 | > 100 | > 100
COc1ccc2c(c1)CC1=C(O2)c2ccc(OC)cc2OC1 | 33.8 | > 100 |  | > 100 | 27.2 |  | > 100 | > 100 | > 100 | > 100
O=C(Cc1ccc([N+](=O)[O-])cc1)OCC#CCOC(=O)Cc1ccc([N+](=O)[O-])cc1 |  | > 10 | > 10 | > 10 | > 10 | > 10 |  | > 10 | > 10 | 
O=C(O)C(CO)NC(=O)n1c2ccccc2c2ccccc21 (stereo not given) | > 100 | > 100 |  | > 100 | > 100 |  | > 100 |  |  | > 100
CC(=O)OCC(OC(C)=O)C1C[C@H]2O[C@@H]3[C@H](C[C@H]2O1)O[C@@]1(C[C@@H]3C)C[C@H](C)[C@@H]2O[C@]3(C[C@@H]2O1)C[C@H]1O[C@H]2[C@H](C)[C@H]4OC(=O)CC5CC[C@H]6OC7[C@H]8O[C@]9(CC[C@H]%10CC(O)(CO)[C@H](CC[C@H]%11C[C@@H](C)C(O)(CO)C(C[C@@H]4O[C@H]2C[C@H]1O3)O%11)O%10)CC8O[C@@H]7[C@@H](O9)[C@H]6O5 (stereo not given in full) | 0.0696 |  | 0.00517 | > 0.333 | > 0.414 | > 1 | 0.142 | > 1 | > 1 | 
CC(=O)OC/C=C(/C=C/CNC1CCCCC1)OC(C)=O | 28.2 |  | 80.7 | 32.9 | 37.5 | 66.9 | 98.5 | 29.9 |  | 25.5
